Among the data in patent US9522920B2, “Bromodomain inhibitors and uses thereof” (Constellation Pharmaceuticals, Inc., priority 2010, dated 2016) are IC50 values, retold here.

The subject of one test is MYC mRNA. The experiment in a line: cMyc RNA quantification assay (QuantiGene) in MV4:11 cells. In kind it is cell-based. The following applies: Homo sapiens, MV4-11, 4 h, Table 14, MV4:11 cells, read-out: MYC-MV411. The protocol:
MV4:11 (AML) or Raji (Burkitt's lymphoma) cells were seeded in a 96-well plate and incubated in the presence of various concentrations of compounds for 4 h. Relative mRNA levels were quantitated by using QuantiGene 2.0 assay (Affymetrix) according to the manufacturer's recommendation. Signals were detected by using an Envision plate reader (Perkin-Elmer). Biological duplicates were averaged and normalized to vehicle (DMSO) control to calculate percent MYC mRNA levels.

In a further test the test system is IL-6 secretion. The experiment in a line: Cell-based IL-6 quantification assay (ELISA, Mesoscale) in LPS-stimulated THP-1 cells. The following applies: Homo sapiens, THP-1, 16 h, Table 14; THP-1 cells, LPS, 16 h; read-out: IL6. In short, it runs like this:
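THP-1 cells stimulated with LPS at 4 μg/mL final and exposed to compounds for 16 h. Supernatant IL-6 measured by Mesoscale ELISA and normalized to CellTiter-Glo cell content. Percent inhibition derived from that ratio.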

Another test concerns the target T1, BRD4(BD1) (Homo sapiens, UniProt O60885).
T1 construct: His; made in house
Briefly: BRD4 AlphaLisa binding assay (Alphascreen). The note with it: Table 14; BRD4 AlphaLisa Binding Assay; read-out: Alpha screen. In short, it runs like this: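 BRD4(BD1) (30 nM) incubated 20 min at room temperature with peptide (200 nM) and compound in 40 mM HEPES pH 7.0, 40 mM NaCl, 1 mM DTT, 0.01% BSA, 0.008% Brij-35, 1.2% DMSO.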

Some results are limits rather than exact numbers.

Turning to `Cc1noc2c1-c1[nH]c(=O)ccc1C(c1ccc(Cl)cc1)=NC2` [Compound 220, 5-(4-Chlorophenyl)-10-methyl-1H-isoxazolo[5,4-c]pyrido[2,3-e]azepin-2(7H)-one], the IC50 with MYC mRNA, in the test with IL-6 secretion and on BRD4(BD1) was over 1000 nM throughout.

On to `CNc1ccc2c(n1)-c1c(C)noc1CN=C2c1ccc(Cl)cc1` [Compound 221, 5-(4-Chlorophenyl)-N,10-dimethyl-7H-isoxazolo[5,4-c]pyrido[2,3-e]azepin-2-amine], for which the IC50 in the test with MYC mRNA, with IL-6 secretion and on BRD4(BD1) was over 1000 nM throughout.

Consider `Cc1noc2c1-c1ccnc(N)c1C(c1ccc(Cl)cc1)=N[C@H]2CC(N)=O` [Compound 222, 2-((4S)-7-Amino-6-(4-chlorophenyl)-1-methyl-4H-isoxazolo[5,4-c]pyrido[4,3-e]azepin-4-yl)acetamide], for which the IC50 in the test on MYC mRNA, with IL-6 secretion and at BRD4(BD1) was under 500 nM throughout.

On to `Cc1noc2c1-c1ccccc1C(c1ccc(Cl)cc1)=N[C@H]2CC(C)(C)O` [Compound 223, 1-((4S)-6-(4-chlorophenyl)-1-methyl-4H-benzo[c]isoxazolo[4,5-e]azepin-4-yl)-2-methylpropan-2-ol], for which the IC50 in the test on MYC mRNA, with IL-6 secretion and at BRD4(BD1) was over 1000 nM each time.

On to `Cc1noc2c1-c1ccc(C#N)cc1C(c1ccc(Cl)cc1)=N[C@H]2CC(N)=O` [Compound 224], for which the IC50 in the test on MYC mRNA, in the test on IL-6 secretion and at BRD4(BD1) was under 500 nM each time.

For `CCOC(=O)NC1N=C(c2ccc(Cl)cc2)c2ccccc2-c2c(C)noc21` (stereo not drawn) [Compound 225, ethyl (6-(4-chlorophenyl)-1-methyl-4H-benzo[c]isoxazolo[4,5-e]azepin-4-yl)carbamate], the IC50 with MYC mRNA, in the test with IL-6 secretion and at BRD4(BD1) was under 500 nM each time.

As for `Cc1noc2c1-c1ccccc1C(c1ccc(C3(O)CC3)cc1)=N[C@H]2CC(N)=O` [Compound 226], the IC50 in the test on MYC mRNA, with IL-6 secretion and at BRD4(BD1) was under 500 nM each time.

On to `Cc1noc2c1-c1nc(Cl)ccc1C(c1ccc(Cl)cc1)=NC2` [Compound 227, 2-Chloro-5-(4-chlorophenyl)-10-methyl-7H-isoxazolo[5,4-c]pyrido[2,3-e]azepine], for which the IC50 in the test on MYC mRNA, in the test on IL-6 secretion and on BRD4(BD1) was over 1000 nM in each case.

For `Cc1noc2c1-c1nc(N)ccc1C(c1ccc(Cl)cc1)=NC2` [Compound 228, 5-(4-Chlorophenyl)-10-methyl-7H-isoxazolo[5,4-c]pyrido[2,3-e]azepin-2-amine], the IC50 in the test with MYC mRNA, in the test on IL-6 secretion and at BRD4(BD1) was over 1000 nM in each case.

For the compound `Cc1noc2c1-c1ccnc(Oc3ccccc3)c1C(c1ccc(Cl)cc1)=NC2` [Compound 229, 6-(4-Chlorophenyl)-1-methyl-7-phenoxy-4H-isoxazolo[5,4-c]pyrido[4,3-e]azepine], the IC50 in the test with MYC mRNA, in the test on IL-6 secretion and on BRD4(BD1) was over 1000 nM each time.

As for `Cc1noc2c1-c1ccc(Cl)cc1C(c1ccc(F)cc1)=N[C@H]2C` [Compound 230], the results for the IC50 in the test on MYC mRNA, with IL-6 secretion and at BRD4(BD1) were 500 to 1000 nM, under 500 nM and under 500 nM, respectively.

On to `Cc1noc2c1-c1ccc(-c3ccc(N)nc3)cc1C(c1ccc(F)cc1)=N[C@H]2C` [Compound 231], for which the IC50 with MYC mRNA, with IL-6 secretion and at BRD4(BD1) was under 500 nM throughout.

As for `Cc1noc2c1-c1ccccc1C(c1ccc(C(C)(C)N)cc1)=N[C@H]2CC(N)=O` [Compound 233], the IC50 in the test on MYC mRNA was 500 to 1000 nM; with IL-6 secretion, 500 to 1000 nM; on BRD4(BD1), under 500 nM.

As to `Cc1noc2c1-c1ccc(-c3ccc(C(=O)O)cc3)cc1C(c1ccc(F)cc1)=N[C@H]2CC(N)=O` [Compound 234], the IC50 is 500 to 1000 nM in the test on MYC mRNA, 500 to 1000 nM in the test on IL-6 secretion and under 500 nM at BRD4(BD1).
